These results are taken from US20210308077A1, “COMBINATIONS INCLUDING BETA-ADRENORECEPTOR AGONISTS FOR TREATMENT OF PARKINSON`S DISEASE AND MOVEMENT DISORDERS” (The Brigham and Women`s Hospital, Inc., priority 2017, published 2021).

Structures can show the parent of a compound that is named as a salt.

In test [1] the test system is SNCA mRNA. Kind of test: endogenous SNCA mRNA expression in SK-N-MC neuroblastoma cells (screening, replication, confirmation; qPCR). Format: cell-based, human. Conditions: for relative SNCA mRNA abundance, confirmation stage: 10 μM for 48 hours, vs vehicle control. The protocol: Human neuroblastoma SK-N-MC cells were acquired from American Type Culture Collection (ATCC). Cells were cultured at 37° C. in 5% CO2 in DMEM/F12 supplemented with 10% fetal bovine serum (FBS) and 100 units per ml penicillin and streptomycin. The drug library was obtained from the Laboratory for Drug Discovery in Neurodegeneration (LDDN), Harvard NeuroDiscovery Center, Boston, Mass. The drug library consisted of approximately 1,126 small molecules. About 586 of the compounds were from Prestwick Chemical's (Illkirch, France) library, a unique collection of mostly off-patent small organic molecules, 90% being marketed drugs and 10% bioactive alkaloids or related substances. About 400 compounds were from the SPECS collection (available on the world wide web at.specs.net). 140 compounds generated in house by the LDDN were also included in the library. Compounds for the screening were stored as DMSO stocks. All drugs used for Confirmation Assay were purchased from Sigma (St. Louis, Mo.).
Approximately 2×10^4low passage SK-N-MC cells were seeded per well in 384-well cell culture plates for 24 hours. Compounds were then transferred into each well (final concentration 1 μM) by using a BioMekFX (Beckman Coulter) equipped with a 384-channel pipetting head. After 48 hours in cell culture incubator, cells were washed once in cold phosphate-buffered saline (PBS) by using BioTek ELx405 select CW plate washer and then lysed at room temperature (22-24° C.) with lysis buffer (Applied Biosystems) using the Cell-to-CT procedures according to the manufacturer's instructions (Applied Biosystems). After 5 min, lysis was terminated by incubation with stop solution (Applied Biosystems). 11 μL of each lysate were transferred to 384-well plates for RT in a total volume of 25 μl. 4 μL of RT reaction were then transferred to new 384-well plates for qPCR.
Using the Cell-to-CT kit (Applied Biosystems) we performed expression analysis directly from SK-N-MC neuroblastoma cells cultured in 384-well plates through in situ cDNA synthesis. In this miniaturized assay, high copy numbers of SNCA and of endogenous controls were detected as indicated by raw cycle threshold values of 25.11±0.02 (mean CT value±SEM) and 20.2±0.02 for SNCA and Ubiquitin C (UBC), respectively. Technical variation (using identical cDNA loaded in multiple wells) and biological variation (cDNA synthesized in situ in each of 384 wells of cultured SK-N-MC cells treated with DMSO) were low, with coefficients of variation of 1% and 5.2% respectively. At least ten DMSO-treated controls were included on each 384-well plate as negative external control and calibrator. An equal amount of cDNA derived from Universal Reference RNA was spotted on all plates as plate-to-plate control. Control reactions lacking template or reverse transcription were assayed for contamination with genomic DNA.
41 compounds were forwarded into the Replication Assay. For each compound eight wells were treated with drug and compared to eight wells treated with DMSO alone. The Cell-to-CT procedure was employed using two new reference genes, ribosomal protein L13 (RPL13) and glucuronidase beta (GUSB) (instead of UBC) to control for input RNA. […] 10 compounds met these criteria and were forwarded from the Replication into the Confirmation Assay.
The ten forwarded compounds were used in the Confirmation Assay. For each compound ten wells were treated with drug and compared to ten wells treated with DMSO alone. RNA was extracted using TRIzol® following the manufacturers protocol (Life Technologies). Freshly ordered compounds were used. […] Six compounds met these criteria and were forwarded from the Confirmation Assay to the ELISA Assay stage (see below).
Total RNA from flash-frozen mice brain tissue, rodent primary cells, human neuroblastoma cells and iPSC-derived neuronal cells was isolated using TRIzol® (Life Technologies) following the manufacturer's protocol. […]

The test system of test [2] is 6-hydroxydopamine rat model of PD. Particulars: 6-hydroxydopamine rat model of PD (reference 9); cited from earlier work.
The next test concerns H3K27Ac. Kind of test: immunoblot with antibody against H3K27Ac in SK-N-MC cells. Format: cell-based, human. Conditions: vs vehicle-treated cells. The protocol: For western blot analysis, protein samples (20 μg) were run on a 4-20% gradient SDS-polyacrylamide gel (Biorad) and transferred onto a polyvinylidene fluoride (PVDF) membrane filter (0.2 μm; Biorad) using an electroblot apparatus (Bio-Rad, Hercules, Calif.) at 100V for 1 h in transfer buffer (25 mM Tris-HCl, 192 mM glycine, 0.1% SDS, 20% (v/v) methanol). The membrane was incubated in blocking solution (50 mM Tris-HCl, 200 mM NaCl, 1 mM MgCl2, pH 7.4) containing 5% non-fat dry milk powder for 1 hour at room temperature. The membrane was processed through sequential incubations with primary antibody overnight at 4° C. followed by incubation with horseradish peroxidase-conjugated species specific secondary antibody at 1:250 dilutions (Thermo Scientific Pierce). Immunoreactive proteins on the membrane were visualized using the SuperSignal™ West Pico Chemiluminescent kit (Thermo Scientific Pierce). Scanned western blots were analyzed using ImageJ software, version 1.47. Pictures were inverted and usually the background signal from an empty lane was subtracted to obtain specific signals for each lane.
On the technique in general: Immunoblotting shows a protein as a band on a membrane.

Test [3] relates to H3K27 acetylation of SNCA promoter and enhancers. Briefly: chromatin immunoprecipitation for H3K27ac at SNCA promoter and enhancers in SK-N-MC cells. The test is classed as cell-based, human. Particulars: clenbuterol 10 μM, valproic acid 100 μM, propranolol 100 μM, vs vehicle. As for the experimental part:
Chromatin immunoprecipitation (ChIP) assays were performed using the Simple ChIP Enzymatic Chromatin IP kit protocol as recommended by the manufacturer (Cell Signaling Technology) with slight modifications. Briefly, ChIPs were performed on asynchronously growing SK-N-MC cells treated with clenbuterol (10 μM), valproic acid (100 μM) or propranolol (100 μM). Cross-linking was carried out with 1% formaldehyde for 10 min at room temperature. Cross-linking was subsequently quenched by adding glycine to a final concentration of 1× for 5 min. Cells were collected and washed twice with PBS, then resuspended in 2 mL of lysis buffer (as described in the protocol). After 10 min on ice, cells were treated with micrococcal nuclease and then sonicated to obtain DNA fragments of ˜500 bp as determined by agarose gel electrophoresis with ethidium bromide staining. Protein-DNA complexes were isolated by centrifugation at 10,000 rpm for 10 min. Supernatants with protein-DNA complexes were incubated overnight with rabbit polyclonal antibody directed against acetylated H3K27 (Abcam). Normal rabbit IgG was used as a negative control and Histone H3 rabbit mAb (ChIP formulated) as positive control. 2% of sample was saved as input. Antibody-protein-DNA complexes were further incubated for 2 hours with 30 μl of ChIP-grade Protein G magnetic beads to isolate antibody bound fractions of chromatin. Immuno-complexes were washed with the buffers provided and as described in the kit. Protein-DNA complexes were eluted and cross-links of pull down fractions and inputs (2% of total IP fraction) were reversed by 2 hours incubation in Proteinase K and 5 M NaCl at 65° C. […] 2 μl of immunoprecipitated DNA was analyzed by qPCR using a Power SYBR Green PCR Master mix (Applied Biosystems by Life technologies) on an ABI 7900HT instrument (Applied Biosystems) with the following temperature profile: 3 min of enzyme activation at 95° C. followed by 40 cycles of 95° C. for 15 s and 60° C. for 60 s. Sample from three independent immunoprecipitation assays were analyzed.

The test system of another test is α-synuclein protein. Briefly: α-synuclein protein in rat primary cortical neurons (ELISA). Format: cell-based. Conditions: metaproterenol 5 μM, clenbuterol 20 μM, salbutamol 10 μM, 72 hours. The protocol: (§1) Primary cortical cultures were generated from E18 Sprague-Dawley rat embryos. The cortical region was dissected out in Hank's Balanced Salt Solution buffered with Hepes and dissociated with 0.125% trypsin (Invitrogen) for 17 min at 37 ° C., followed by trituration. Dissociated cells were plated at a density of 5×10^5 cells/well or 2.5×10^5 cells/well in 12-well or 24-well plates, respectively precoated with poly-D lysine (100 μg/mL). The cells were cultured in Neurobasal medium with B-27 supplement (Invitrogen) and glutamax and gentamycin. Half of the medium was changed every 4 days. Cortical neurons were treated with β2AR agonists 10 days post plating. They were then harvested 48 hours post-treatment for mRNA extraction and 72 hours post-treatment for protein extraction.
Protein lysis buffer containing 320 mM sucrose, 5 mM NaF, 1 mM Na3VO4, 10 mM Tris (pH 7.4), 1 mM EGTA, and 1 mM EDTA was used for mice brain tissue lysis. 100 μL of cold extraction buffer was added to each sample and homogenized in a dounce homogenizer. […] Total protein concentrations were determined by BCA assay (Thermo Scientific) according to the manufacturer's instructions. Total α-synuclein was quantified using an α-synuclein-specific sandwich ELISA.
An α-synuclein-specific Meso Scale Discovery (MSD) ELISA assay (described in Ref. (11)) was utilized for endogenous α-synuclein protein measurement. […] After samples were emptied and plate washed 3 times with TBS-T, sulfo-tagged SOY1 mAb (detection Ab) (generated using Sulfo-Tag-NHS-Ester (MSD) diluted in blocking buffer (6.7 ng/μl), was added to the plate (30 μl volumes/well) and shaken for 1 hour at room temperature. Following 3 washes, MSD Read (2×, diluted in ultrapure water) buffer was added and the plates were immediately measured using a MSD Sector 2400 imager. For confirmatory studies, an second α-synuclein-specific ELISA implementation was used employing a different, extensively published anti-α-synuclein detection antibody (Syn-1 mAb) and a different anti-α-synuclein capture antibody (1H9, courtesy Dr. Selkoe).
A general note: An ELISA detects its analyte on a solid surface through an enzyme-linked reagent.

Test [4] deals with Snca mRNA. Kind of test: Snca mRNA in rat primary cortical neurons. The test is classed as cell-based. Particulars: metaproterenol 5 μM, clenbuterol 20 μM, salbutamol 10 μM, 48 hours. As for the experimental part:
as §1
Total RNA from flash-frozen mice brain tissue, rodent primary cells, human neuroblastoma cells and iPSC-derived neuronal cells was isolated using TRIzol® (Life Technologies) following the manufacturer's protocol. RNA concentration was measured using NanoDrop spectrophotometer (Thermo Fisher Scientific, Wilmington, De.). 2 μg of total RNA was reverse transcribed into cDNA using the High Capacity cDNA Reverse Transcription Kit from Applied Biosystems. Quantitative PCR was performed using TaqMan Universal PCR Master Mix (Applied Biosystems) on an ABI 7900HT instrument (Applied Biosystems) as described previously (31). For mouse brain tissue and rat primary cortical neuron samples, rodent-specific TaqMan Assay on-demand primers and probes were used to assay the relative abundance of target genes, and rodent Rp113 was used as a reference gene to normalize for RNA loading. Similar results were obtained when Actb or Ubc were used as controls for input RNA. For human neuroblastoma and iPSC-derived neuron samples, human TaqMan Assay on-demand probes were used to assay the relative abundance of target genes, and the geometric mean of the three human reference genes RPL13, GUSB and UBC was used to normalize for RNA loading. Expression values were analyzed using the comparative threshold cycle method (31).

For the molecule `Nc1nc2ccc(OC(F)(F)F)cc2s1` [riluzole hydrochloride], the “relative SNCA mRNA abundance, confirmation stage” value in the test with SNCA mRNA [1] (SK-N-MC cells) is “fourth hit”. The dopaminergic neurodegeneration result in test [2] is on record as “attenuates dopaminergic neurodegeneration”.
`CCCC(CCC)C(=O)O` [valproic acid]: the “relative SNCA mRNA abundance (with H3K27Ac blot)” value in the test with SNCA mRNA [1] (SK-N-MC cells, vs vehicle-treated cells) is on record as “increase”. Moreover, the “effect of co-treatment on the β2AR agonist effect on SNCA expression” value with SNCA mRNA [1] (co-treatment of clenbuterol with valproic acid) is listed as “abrogated the β2AR agonist effect on SNCA expression”. Moreover, the “H3K27Ac levels (Western blotting)” value with H3K27Ac is on record as “increase”. Besides, the “H3K27 acetylation across SNCA promoter and two intronic enhancers (ChIP)” value in test [3] was “increased H3K27 acetylation”.
On to `CC(C)NCC(O)c1cc(O)cc(O)c1` (centres unmarked) [metaproterenol], for which the “relative SNCA mRNA abundance, confirmation stage” value in the test with SNCA mRNA [1] (SK-N-MC cells) is recorded as “reduced SNCA mRNA abundance”. Further, in the test with SNCA mRNA [1] (SK-N-MC cells, 48 hours, vs DMSO, final concentration 1 μM), the “reduction of SNCA expression in the screening stage” value was “more than 35%”. The “SNCA mRNA expression, dose dependence” value with SNCA mRNA [1] (SK-N-MC cells, indicated doses, 48 hours) is “lowered SNCA mRNA expression in a dose-dependent manner”. Moreover, the α-synuclein protein levels result with α-synuclein protein is recorded as “significantly, but modestly, reduced”. Moreover, the “endogenous Snca mRNA” value in the test on Snca mRNA [4] is “significantly, but modestly, reduced”.
